The record followed here is patent publication US11173151B2, “Substituted triazole derivatives and uses thereof” (BAYER AKTIENGESELLSCHAFT, priority 2017, dated 2021).

The target of one test is T1, human V1a receptor (Homo sapiens, UniProt P37288).
T1 construct: expressed in transfected cells; host or cells: CHO K1 (ATCC), also stably transfected with a modified aequorin
The experiment in a line: Cellular in vitro assay for determining vasopressin receptor activity, V1a receptor cell line (CHO, aequorin luminescence). The format is cell-based. As to conditions: for IC50: CHO cell line transfected with human V1a receptor, [Arg]-vasopressin at EC50 concentration, read-out: IC50 hV1a; for ratio IC50 hV2/hV1a: selectivity ratio IC50 hV2 / IC50 hV1a. The method in brief: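 Cells were plated the day before in medium containing 5 μg/ml coelenterazine and kept at 37° C. Compounds at various concentrations were then added for 10 minutes. Next, [Arg]-vasopressin at EC50 was applied and light output recorded at once, yielding IC50.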

Another test concerns the target T2, human V2 receptor (Homo sapiens, UniProt P30518).
T2 construct: expressed in transfected cells; host or cells: CHO K1 (ATCC) expressing firefly luciferase under a CRE-responsive promoter
The experiment in a line: Cellular in vitro assay for determining vasopressin receptor activity, V2 receptor cell line (CHO, CRE-luciferase). The format is cell-based. As to conditions: CHO cell line transfected with human V2 receptor; [Arg8]-vasopressin at EC50 concentration, 3 hours; read-out: IC50 hV2.

Molecules are shown by their SMILES.

T1 sequence (P37288 whole entry): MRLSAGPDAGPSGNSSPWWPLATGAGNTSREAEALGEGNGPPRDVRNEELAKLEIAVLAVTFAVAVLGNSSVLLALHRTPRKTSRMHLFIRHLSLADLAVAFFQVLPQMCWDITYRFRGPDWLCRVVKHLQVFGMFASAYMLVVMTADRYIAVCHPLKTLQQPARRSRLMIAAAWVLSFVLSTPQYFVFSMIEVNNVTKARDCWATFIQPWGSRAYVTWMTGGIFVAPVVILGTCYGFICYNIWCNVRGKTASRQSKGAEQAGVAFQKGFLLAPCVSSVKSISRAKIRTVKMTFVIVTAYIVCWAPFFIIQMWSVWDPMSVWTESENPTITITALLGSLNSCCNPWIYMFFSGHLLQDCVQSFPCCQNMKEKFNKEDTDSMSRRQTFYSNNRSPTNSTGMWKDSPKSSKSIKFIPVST
T2 sequence (P30518 whole entry): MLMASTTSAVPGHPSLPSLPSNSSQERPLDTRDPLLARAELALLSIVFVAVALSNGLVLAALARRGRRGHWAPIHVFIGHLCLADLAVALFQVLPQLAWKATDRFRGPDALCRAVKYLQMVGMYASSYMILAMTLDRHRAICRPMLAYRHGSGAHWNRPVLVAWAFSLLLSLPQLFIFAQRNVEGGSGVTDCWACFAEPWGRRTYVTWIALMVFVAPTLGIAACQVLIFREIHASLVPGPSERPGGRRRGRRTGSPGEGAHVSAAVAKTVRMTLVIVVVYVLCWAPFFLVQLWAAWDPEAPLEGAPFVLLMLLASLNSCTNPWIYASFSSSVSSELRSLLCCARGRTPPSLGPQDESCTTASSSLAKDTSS

Turning to `CC(C)(C)OC(=O)CCNc1ccncc1-n1cnc(Cn2nc(-c3ccc(Cl)cc3)n(C[C@H](O)C(F)(F)F)c2=O)n1` [Example 19, Tert-butyl N-{3-[3-({3-(4-chlorophenyl)-5-oxo-4-[(2S)-3,3,3-trifluoro-2-hydroxypropyl]-4,5-dihydro-1H-1,2,4-triazol-1-yl}methyl)-1H-1,2,4-triazol-1-yl]pyridin-4-yl}-beta-alaninate], on human V1a receptor, the IC50 turned out to be 430 nM and the “ratio IC50 hV2/hV1a” value was 5.2. Besides, the half-maximal inhibitory concentration (IC50) on human V2 receptor came to 2250 nM.

As for `O=C(O)CCNc1ccncc1-n1cnc(Cn2nc(-c3ccc(Cl)cc3)n(C[C@H](O)C(F)(F)F)c2=O)n1` [Example 20, N-{3-[3-({3-(4-Chlorophenyl)-5-oxo-4-[(2S)-3,3,3-trifluoro-2-hydroxypropyl]-4,5-dihydro-1H-1,2,4-triazol-1-yl}methyl)-1H-1,2,4-triazol-1-yl]pyridin-4-yl}-beta-alanine], at human V1a receptor, the half-inhibitory concentration (IC50) was 4350 nM and the “ratio IC50 hV2/hV1a” value was found to be 1.4. The IC50 at human V2 receptor stood at 5920 nM.

Take `NC(=O)CCNc1ccncc1-n1cnc(Cn2nc(-c3ccc(Cl)cc3)n(C[C@H](O)C(F)(F)F)c2=O)n1` [Example 21, N^3-{3-[3-({3-(4-Chlorophenyl)-5-oxo-4-[(2S)-3,3,3-trifluoro-2-hydroxypropyl]-4,5-dihydro-1H-1,2,4-triazol-1-yl}methyl)-1H-1,2,4-triazol-1-yl]pyridin-4-yl}-beta-alaninamide]: the concentration for half-maximal inhibition (IC50) at human V1a receptor worked out at 840 nM; at human V2 receptor, 1480 nM. Moreover, on human V1a receptor, the “ratio IC50 hV2/hV1a” value came to 1.8.

Regarding `NC(=O)[C@H]1CCCN1c1ccncc1-n1cnc(Cn2nc(-c3ccc(Cl)cc3)n(C[C@H](O)C(F)(F)F)c2=O)n1` [Example 22, 1-{3-[3-({3-(4-Chlorophenyl)-5-oxo-4-[(2S)-3,3,3-trifluoro-2-hydroxypropyl]-4,5-dihydro-1H-1,2,4-triazol-1-yl}methyl)-1H-1,2,4-triazol-1-yl]pyridin-4-yl}-D-prolinamide], on human V1a receptor, the IC50 was 250 nM and the “ratio IC50 hV2/hV1a” value is recorded as 2.8. On human V2 receptor, the IC50 was 690 nM.

As for `NC(=O)[C@@H]1CCCN1c1ccncc1-n1cnc(Cn2nc(-c3ccc(Cl)cc3)n(C[C@H](O)C(F)(F)F)c2=O)n1` [Example 23, 1-{3-[3-({3-(4-Chlorophenyl)-5-oxo-4-[(2S)-3,3,3-trifluoro-2-hydroxypropyl]-4,5-dihydro-1H-1,2,4-triazol-1-yl}methyl)-1H-1,2,4-triazol-1-yl]pyridin-4-yl}-L-prolinamide], the IC50 worked out at 710 nM at human V1a receptor and 4250 nM at human V2 receptor. At human V1a receptor, the “ratio IC50 hV2/hV1a” value was determined as 6.0.

On to `NC(=O)[C@H]1CC(F)(F)CN1c1ccncc1-n1cnc(Cn2nc(-c3ccc(Cl)cc3)n(C[C@H](O)C(F)(F)F)c2=O)n1` [Example 24, 1-{3-[3-({3-(4-Chlorophenyl)-5-oxo-4-[(2S)-3,3,3-trifluoro-2-hydroxypropyl]-4,5-dihydro-1H-1,2,4-triazol-1-yl}methyl)-1H-1,2,4-triazol-1-yl]pyridin-4-yl}-4,4-difluoro-D-prolinamide], for which the results for the IC50 at human V1a receptor and at human V2 receptor were 330 nM and 4670 nM, respectively. The “ratio IC50 hV2/hV1a” value at human V1a receptor turned out to be 14.2.

For the compound `NC(=O)[C@@H]1CC(F)(F)CN1c1ccncc1-n1cnc(Cn2nc(-c3ccc(Cl)cc3)n(C[C@H](O)C(F)(F)F)c2=O)n1` [Example 25, 1-{3-[3-({3-(4-Chlorophenyl)-5-oxo-4-[(2S)-3,3,3-trifluoro-2-hydroxypropyl]-4,5-dihydro-1H-1,2,4-triazol-1-yl}methyl)-1H-1,2,4-triazol-1-yl]pyridin-4-yl}-4,4-difluoro-L-prolinamide], the IC50 is 1970 nM on human V1a receptor and 4900 nM on human V2 receptor. The “ratio IC50 hV2/hV1a” value at human V1a receptor was determined as 2.5.

As for `O=C(Nc1ccncc1-n1cnc(Cn2nc(-c3ccc(Cl)cc3)n(C[C@H](O)C(F)(F)F)c2=O)n1)OCC(F)(F)F` [Example 26, 2,2,2-Trifluoroethyl {3-[3-({3-(4-chlorophenyl)-5-oxo-4-[(2S)-3,3,3-trifluoro-2-hydroxypropyl]-4,5-dihydro-1H-1,2,4-triazol-1-yl}methyl)-1H-1,2,4-triazol-1-yl]pyridin-4-yl}carbamate], on human V1a receptor, the IC50 was 58 nM and the “ratio IC50 hV2/hV1a” value is on record as 5.6. On human V2 receptor, the 50% inhibitory concentration (IC50) stood at 323 nM.

Consider `O=C(CC(F)(F)F)Nc1ccncc1-n1cnc(Cn2nc(-c3ccc(Cl)cc3)n(C[C@H](O)C(F)(F)F)c2=O)n1` [Example 27, N-{3-[3-({3-(4-Chlorophenyl)-5-oxo-4-[(2S)-3,3,3-trifluoro-2-hydroxypropyl]-4,5-dihydro-1H-1,2,4-triazol-1-yl}methyl)-1H-1,2,4-triazol-1-yl]pyridin-4-yl}-3,3,3-trifluoropropanamide], for which, at human V1a receptor, the IC50 came to 4.05 nM and the “ratio IC50 hV2/hV1a” value amounted to 69.8. Besides, the half-inhibitory concentration (IC50) on human V2 receptor is 283 nM.

As to `CC(=O)Nc1ccncc1-n1cnc(Cn2nc(-c3ccc(Cl)cc3)n(C[C@H](O)C(F)(F)F)c2=O)n1` [Example 28, N-{3-[3-({3-(4-Chlorophenyl)-5-oxo-4-[(2S)-3,3,3-trifluoro-2-hydroxypropyl]-4,5-dihydro-1H-1,2,4-triazol-1-yl}methyl)-1H-1,2,4-triazol-1-yl]pyridin-4-yl}acetamide], on human V1a receptor, the IC50 is 11 nM and the “ratio IC50 hV2/hV1a” value was 35.9. Also, the IC50 at human V2 receptor came to 395 nM.

With `O=C(CC1CC1)Nc1ccncc1-n1cnc(Cn2nc(-c3ccc(Cl)cc3)n(C[C@H](O)C(F)(F)F)c2=O)n1` [Example 30, N-{3-[3-({3-(4-Chlorophenyl)-5-oxo-4-[(2S)-3,3,3-trifluoro-2-hydroxypropyl]-4,5-dihydro-1H-1,2,4-triazol-1-yl}methyl)-1H-1,2,4-triazol-1-yl]pyridin-4-yl}-2-cyclopropylacetamide], the results for the IC50 on human V1a receptor and on human V2 receptor were 12.8 nM and 783 nM, respectively. For the same compound, the “ratio IC50 hV2/hV1a” value at human V1a receptor turned out to be 61.0.

Take `O=C(Nc1ccncc1-n1cnc(Cn2nc(-c3ccc(Cl)cc3)n(C[C@H](O)C(F)(F)F)c2=O)n1)C1CC(F)(F)C1` [Example 31, N-{3-[3-({3-(4-Chlorophenyl)-5-oxo-4-[(2S)-3,3,3-trifluoro-2-hydroxypropyl]-4,5-dihydro-1H-1,2,4-triazol-1-yl}methyl)-1H-1,2,4-triazol-1-yl]pyridin-4-yl}-3,3-difluorocyclobutanecarboxamide]: at human V1a receptor, the IC50 worked out at 18.3 nM and the “ratio IC50 hV2/hV1a” value stood at 90.8. Further, the IC50 on human V2 receptor is 1670 nM.

`O=C(Nc1ccncc1-n1cnc(Cn2nc(-c3ccc(Cl)cc3)n(C[C@H](O)C(F)(F)F)c2=O)n1)C1(C(F)(F)F)CC1` [Example 32, N-{3-[3-({3-(4-Chlorophenyl)-5-oxo-4-[(2S)-3,3,3-trifluoro-2-hydroxypropyl]-4,5-dihydro-1H-1,2,4-triazol-1-yl}methyl)-1H-1,2,4-triazol-1-yl]pyridin-4-yl}-1-(trifluoromethyl)cyclopropanecarboxamide]: at human V1a receptor, the IC50 turned out to be 5 nM and the “ratio IC50 hV2/hV1a” value worked out at 150.7. Besides, the IC50 on human V2 receptor came to 753 nM.

On to `O=C(Nc1ccncc1-n1cnc(Cn2nc(-c3ccc(Cl)cc3)n(C[C@H](O)C(F)(F)F)c2=O)n1)[C@@H]1C[C@@H]1F` [Example 34, (1S,2S)—N-{t3-[3-({3-(4-Chlorophenyl)-5-oxo-4-[(2S)-3,3,3-trifluoro-2-hydroxypropyl]-4,5-dihydro-1H-1,2,4-triazol-1-yl}methyl)-1H-1,2,4-triazol-1-yl]pyridin-4-yl}-2-fluorocyclopropanecarboxamide], for which the IC50 is 13.5 nM at human V1a receptor and 1240 nM on human V2 receptor. Besides, on human V1a receptor, the “ratio IC50 hV2/hV1a” value is on record as 92.1.

For the compound `O=C(Nc1cccnc1-n1cnc(Cn2nc(-c3ccc(Cl)cc3)n(C[C@H](O)C(F)(F)F)c2=O)n1)C(F)(F)F` [Example 36, N-{2-[3-({3-(4-Chlorophenyl)-5-oxo-4-[(2S)-3,3,3-trifluoro-2-hydroxypropyl]-4,5-dihydro-1H-1,2,4-triazol-1-yl}methyl)-1H-1,2,4-triazol-1-yl]pyridin-3-yl}-2,2,2-trifluoroacetamide], at human V1a receptor, the IC50 turned out to be 67.5 nM and the “ratio IC50 hV2/hV1a” value is 3.4. The 50% inhibitory concentration (IC50) on human V2 receptor came out at 232 nM.

Take `O=C(CC(F)(F)F)Nc1cccnc1-n1cnc(Cn2nc(-c3ccc(Cl)cc3)n(C[C@H](O)C(F)(F)F)c2=O)n1` [Example 37, N-{2-[3-({3-(4-Chlorophenyl)-5-oxo-4-[(2S)-3,3,3-trifluoro-2-hydroxypropyl]-4,5-dihydro-1H-1,2,4-triazol-1-yl}methyl)-1H-1,2,4-triazol-1-yl]pyridin-3-yl}-3,3,3-trifluoropropanamide]: at human V1a receptor, the IC50 was 7.5 nM and the “ratio IC50 hV2/hV1a” value amounted to 77.0. Moreover, at human V2 receptor, the IC50 came out at 578 nM.

For the compound `CC(=O)Nc1cccnc1-n1cnc(Cn2nc(-c3ccc(Cl)cc3)n(C[C@H](O)C(F)(F)F)c2=O)n1` [Example 38, N-{2-[3-({3-(4-Chlorophenyl)-5-oxo-4-[(2S)-3,3,3-trifluoro-2-hydroxypropyl]-4,5-dihydro-1H-1,2,4-triazol-1-yl}methyl)-1H-1,2,4-triazol-1-yl]pyridin-3-yl}acetamide], at human V1a receptor, the IC50 amounted to 4.2 nM and the “ratio IC50 hV2/hV1a” value is 52.4. Also, the half-inhibitory concentration (IC50) at human V2 receptor worked out at 220 nM.

Regarding `O=C(CF)Nc1cccnc1-n1cnc(Cn2nc(-c3ccc(Cl)cc3)n(C[C@H](O)C(F)(F)F)c2=O)n1` [Example 39, N-{2-[3-({3-(4-Chlorophenyl)-5-oxo-4-[(2S)-3,3,3-trifluoro-2-hydroxypropyl]-4,5-dihydro-1H-1,2,4-triazol-1-yl}methyl)-1H-1,2,4-triazol-1-yl]pyridin-3-yl}-2-fluoroacetamide], at human V1a receptor, the IC50 stood at 23 nM and the “ratio IC50 hV2/hV1a” value is 15.7. For the same compound, at human V2 receptor, the IC50 was found to be 360 nM.

One may read the IC50 as the concentration that inhibits the measured activity by half.
